Assay results from US20160113904A1, “SKIN CARE PRODUCTS COMPRISING SUBSTITUTED HYDROXYPROLINE WITH UNSATURATED FATTY ACIDS DERIVATIVES” (MEDWELL LABORATORIES LTD., priority 2013, published 2016).
“Also recorded” adds a separate entry of the source.

Legend:
Type in all cases: in vivo, human
[1] = test system: volunteers with Atopic dermatitis; assay: Atopic dermatitis trial: hydration level by Corneometer; settings: for Change in hydration level / Hydration level: treated area; for Hydration level: Corneometer
Protocol: (§1) Ten volunteers aged 2-30 years participated in the trial. Four females and six males.
(§2) Volunteers were instructed to apply the product only on one side of the body, on the worst affected area, while the other side was defined as the control area and was not treated. The tested material, a body lotion product, was applied 1-3 times a day for a period of 4 weeks.
Hydration level was evaluated by Comeometer CM 825, Courage & Khazaka, CK. The probe of the Corneometer was placed on the skin at a constant pressure and measurements of skin hydration were taken. Skin hydration was recorded at baseline, after 1 week and after 2 weeks of treatment. Room temperature and humidity were kept constant.
(§3) A statistical comparison between T0 and the other two time-points (T1 and T2) and between the treated and the Control areas were made according to the Wilcoxon signed-ranks test, while p<0.05 indicated a significant difference

[2] = test system: volunteers with Atopic dermatitis; assay: Atopic dermatitis trial: transepidermal water loss (TEWL) by Tewameter; settings: treated area
Protocol: as §1, §2
Transepidermal water loss (TEWL) was measured by Tewameter 300 TM, Courage & Khazaka, CK. TEWL was recorded at baseline and after one week and after two weeks of treatment. Room temperature and humidity were kept constant.
as §3

[3] = test system: volunteers with Atopic dermatitis; assay: Atopic dermatitis trial: erythema level by Mexameter; settings: for Change in erythema level / Erythema level: treated area; for Erythema level: Mexameter
Protocol: as §1, §2
Erythema level was evaluated by Mexameter, Courage & Khazaka, CK. The probe of the Mexameter was placed on the skin at a constant pressure and measurements of skin hydration were taken. Skin erythema level was recorded at baseline, after 1 week and after 2 weeks of treatment.
as §3

[4] = test system: volunteers with Atopic dermatitis; assay: Atopic dermatitis trial: side effects; settings: topical product use
Excerpt: The participants were asked to keep a record of the daily applications in a diary and to note any side effects resulting from the product application.
In addition to keeping records of side effects, volunteers were asked to immediately report any side effects, such as dryness, burning sensation, peeling of the skin, redness, etc. to 1SR.

[5] = test system: volunteers with psoriasis; assay: Psoriasis trial: side effects; settings: topical use for 4 weeks
Excerpt: The participants were asked to keep a record of daily applications and to note any side effects resulting from product application.
Volunteers were asked to keep a record and report any side effects, such as dryness, burning sensation, peeling of the skin, redness or any other visible changes, and report immediately to study director.

[6] = test system: healthy female volunteers, facial skin; assay: Anti wrinkle test: hydration level by Corneometer; settings: face, treated area
Protocol: (§4) Ten healthy female volunteers were included and completed the study.
Moisture level of the skin (corneometry) and TEWL (Trans Epidermal Water Loss) were measured at each time point.
(§5) A cosmetic anti wrinkle product MW-001 was applied on half of the face for four weeks by each volunteer while the other half served as a control, without any product application during the whole test period.
Hydration level was evaluated by Corneometer, Courage & Khazaka, CK. The probe of the corneometer was placed on the skin at a constant pressure and measurements of skin hydration were taken. Skin hydration was recorded at T0, T1 and T2. Each measurement was repeated three times, and the average of the repeated measurements was calculated and assembled in the test results. The room temperature and humidity were kept constant.
The corneometry results are provided in arbitrary units.

[7] = test system: healthy female volunteers, crow's feet area around the eyes; assay: Anti wrinkle test: silicone imprints, skin roughness
Excerpt: as §4
Silicon imprints were taken from the crow's feet area around the eyes at both treated and control sides at each time point.
as §5
A computer program draws a realistic density three-dimensional image of the relief of the skin on a colour screen for a particular density of points selected for x and y axes and then the measurements data stored in the computer are processed and then evaluated.
This analysis consists of the following steps:
1. Generation of a roughness profile from the surface relief by alignment and filtering. 2. Calculation of standardized roughness parameters DIN 4768 ff). […].
A statistical comparison between the results at T0 and at T1 was made according to the Wilcoxon signed-ranks test, a very sensitive paired-samples non-parametric test for small groups with unknown distribution, where p<0.05 indicates a significant difference. The software used was SPSS 14.

[8] = test system: healthy female volunteers, facial wrinkles; assay: Anti wrinkle test: volunteers' subjective assessment of wrinkles; settings: treated side, scale 0-10
Protocol: as §4
A subjective assessment of facial wrinkles condition was performed by the volunteers at each time point.
as §5
The volunteers filled out a questionnaire after 2 and 4 weeks of application.
The volunteers were asked to answer a questionnaire after four weeks of application, regarding the assessment of each of the tested products, and to evaluate the improvement of the skin beneath and at the side of the eye.

CCC=CCC=CCC=CCC=CCC=CCC=CCCC(=O)N1CC(O)CC1C(=O)O (stereo in doubt) [MW-001]
Hydration level, statistical analysis of change ([1]; any of the sides): no significant change | Change in hydration level ([1]; Baseline): 100% | Hydration level ([1]; T0 baseline): 21.1 | Hydration level ([1]; T1 after one week): 30.7 | Hydration level ([1]; T2 after two weeks): 27.8 | Change in hydration level ([1]; Week 1, relative to baseline): 146% | Change in hydration level ([1]; Week 2, relative to baseline): 132% | Change in TEWL level ([2]; Baseline): 100% | TEWL level ([2]; T0 baseline): 13.6 g/m2/h | TEWL level ([2]; T1 after one week): 12.5 g/m2/h | TEWL level ([2]; T2 after two weeks): 10.5 g/m2/h | Change in TEWL level ([2]; Week 1, relative to baseline): 92% | Change in TEWL level ([2]; Week 2, relative to baseline): 78% | Change in erythema level ([3]; Baseline): 100% | Erythema level ([3]; T0 baseline): 620.5 | Erythema level ([3]; T1 after one week): 562.7 | Erythema level ([3]; T2 after two weeks): 600.2 | Change in erythema level ([3]; Week 1, relative to baseline): 91% | Change in erythema level ([3]; Week 2, relative to baseline): 97% | Erythema level, statistical analysis of change ([3]; treated side, after 1 week of treatment): decreased significantly | Erythema level, statistical analysis versus baseline ([3]; treated side, after the increase following week 1): not significantly different | Side effects / safety [4]: None of the participants had side effects; also recorded: safe for use | Side effects / safety [5]: No side effects were observed; also recorded: safe for use | Average hydration level ([6]; T0 baseline): 60.9 arbitrary units | Average hydration level ([6]; T1 after 2 weeks of use): 53.4 arbitrary units | Average hydration level ([6]; T2 after 4 weeks of use): 53.5 arbitrary units | Overall efficacy conclusion ([7]; rough and wrinkled skin): efficient for the treatment of rough and wrinkled skin | Decrease of skin roughness ([7]; treated area, before versus after 2 weeks of use): 10.8% | Decrease of skin roughness ([7]; treated area, before versus after 4 weeks of use): 19.5% | Skin roughness improvement, statistical analysis ([7]; treated area, both T1 and T2, p<0.05): significant | Volunteers' grading of improvement of wrinkle appearance ([8]; after 2 weeks of treatment): 3.5 | Volunteers' grading of wrinkle improvement around the eyes ([8]; after 2 weeks of treatment): 3.5 | Volunteers' grading of wrinkle improvement around the eyes ([8]; after 4 weeks of treatment): 4.3 | Volunteers' grading of improvement in wrinkles appearance ([8]; printed 'After 2 weeks of treatment' (second statement)): 4.6
